Test results reported in ChEMBL document CHEMBL6071157, “Improved N-phenylpyrrolamide inhibitors of DNA gyrase as antibacterial agents for high-priority bacterial strains” (Eur J Med Chem, 2024).
In brackets after ≈: the same amount, converted by molar mass.

Tests used:
[1] = target: DNA gyrase (Escherichia coli, UniProt P0AES4+P0AES6); assay: Inhibition of Escherichia coli DNA gyrase by supercoiling plate assay; format: protein-complex assay
[2] = tested on: Escherichia coli; assay: Inhibition of Escherichia coli DNA topoisomerase-IV assessed as residual activity at 10 uM by relaxation plate assay relative to control
[3] = target: T1, DNA topoisomerase 2-alpha (Homo sapiens, UniProt P11388); assay: Inhibition of human DNA topoisomerase 2-alpha using linear pBR322 as substrate assessed as conversion of NADH to NAD+ by measuring residual activity at 100 uM preincubated for 10 to 15 mins in presence of pyruvate kinase/lactate dehydrogenase mix followed by ATP addition and measured after 30 mins by ATPase assay relative to control; details: time 40-55 min
[4] = Metabolic stability in human liver microsomes assessed as half life at 1 uM preincubated for 10 mins followed by NADPH addition and measured after 5 to 60 mins by LC-MS/MS analysis; format: ADME, Microsome; details: time 15-70 min
[5] = Metabolic stability in human liver microsomes assessed as intrinsic clearance at 1 uM preincubated for 10 mins followed by NADPH addition and measured after 5 to 60 mins by LC-MS/MS analysis; format: ADME, Microsome; details: time 15-70 min, read-out: CLH
[6] = Metabolic stability in mouse liver microsomes assessed as half life at 1 uM preincubated for 10 mins followed by NADPH addition and measured after 5 to 60 mins by LC-MS/MS analysis; format: ADME, Microsome; details: time 15-70 min
[7] = Metabolic stability in mouse liver microsomes assessed as intrinsic clearance at 1 uM preincubated for 10 mins followed by NADPH addition and measured after 5 to 60 mins by LC-MS/MS analysis; format: ADME, Microsome; details: time 15-70 min, read-out: CLH
[8] = target: T1, DNA topoisomerase 2-alpha; assay: Inhibition of human DNA topoisomerase 2-alpha using linear pBR322 as substrate assessed as conversion of NADH to NAD+ preincubated for 10 to 15 mins in presence of pyruvate kinase/lactate dehydrogenase mix followed by ATP addition and measured after 30 mins by ATPase assay
[9] = tested on: Staphylococcus aureus; assay: Antibacterial activity against Staphylococcus aureus ATCC 29213 assessed as inhibition of bacterial growth by broth microdilution method; format: functional
[10] = tested on: Staphylococcus aureus; assay: Antibacterial against methicillin resistant Staphylococcus aureus ATCC 43300 assessed as inhibition of bacterial growth by broth microdilution method; format: functional; details: time 24 hrs
[11] = tested on: Staphylococcus aureus; assay: Antibacterial against vancomycin-intermediate Staphylococcus aureus ATCC 700699 assessed as inhibition of bacterial growth by broth dilution method; format: functional
[12] = tested on: Enterococcus faecalis; assay: Antibacterial activity against Enterococcus faecalis ATCC 29212 assessed as inhibition of bacterial growth by broth microdilution method; format: functional
[13] = tested on: Enterococcus faecium; assay: Antibacterial activity against vancomycin-resistant Enterococcus faecium ATCC 700221 assessed as inhibition of bacterial growth by broth microdilution method; format: functional
[14] = tested on: Escherichia coli; assay: Antibacterial activity against Escherichia coli ATCC 25922 assessed as inhibition of bacterial growth by broth microdilution method; format: functional
[15] = tested on: Enterobacter cloacae; assay: Antibacterial activity against Enterobacter cloacae subsp. cloacae ATCC 13047 assessed as inhibition of bacterial growth by broth microdilution method; format: functional
[16] = tested on: Pseudomonas aeruginosa; assay: Antibacterial activity against Pseudomonas aeruginosa ATCC 27853 assessed as inhibition of bacterial growth by broth microdilution metho; format: functional
[17] = tested on: Klebsiella pneumoniae; assay: Antibacterial activity against Klebsiella pneumoniae ATCC 10031 assessed as inhibition of bacterial growth by broth microdilution method; format: functional
[18] = tested on: Acinetobacter baumannii; assay: Antibacterial activity against Acinetobacter baumannii ATCC 17978 assessed as inhibition of bacterial growth by broth microdilution method; format: functional
[19] = tested on: MCF7; assay: Cytotoxicity against human MCF7 cells assessed as cell viability at 50 uM incubated for 72 hrs by CellTiter 96 aqueous one solution reagent based MTS assay relative to control; format: functional; details: read-out: Activity
[20] = tested on: Escherichia coli; assay: Inhibition of Escherichia coli DNA topoisomerase-IV assessed as residual activity at 1 uM by relaxation plate assay relative to control
[21] = Inhibition of Escherichia coli DNA topoisomerase-IV relaxation plate assay
[22] = target: DNA gyrase (Staphylococcus aureus, UniProt P0A0K8+P20831); assay: Inhibition of Staphylococcus aureus DNA gyrase by supercoiling plate assay; format: protein-complex assay
DNA gyrase (Staphylococcus aureus, UniProt P0A0K8+P20831), sequence (P0A0K8 whole entry): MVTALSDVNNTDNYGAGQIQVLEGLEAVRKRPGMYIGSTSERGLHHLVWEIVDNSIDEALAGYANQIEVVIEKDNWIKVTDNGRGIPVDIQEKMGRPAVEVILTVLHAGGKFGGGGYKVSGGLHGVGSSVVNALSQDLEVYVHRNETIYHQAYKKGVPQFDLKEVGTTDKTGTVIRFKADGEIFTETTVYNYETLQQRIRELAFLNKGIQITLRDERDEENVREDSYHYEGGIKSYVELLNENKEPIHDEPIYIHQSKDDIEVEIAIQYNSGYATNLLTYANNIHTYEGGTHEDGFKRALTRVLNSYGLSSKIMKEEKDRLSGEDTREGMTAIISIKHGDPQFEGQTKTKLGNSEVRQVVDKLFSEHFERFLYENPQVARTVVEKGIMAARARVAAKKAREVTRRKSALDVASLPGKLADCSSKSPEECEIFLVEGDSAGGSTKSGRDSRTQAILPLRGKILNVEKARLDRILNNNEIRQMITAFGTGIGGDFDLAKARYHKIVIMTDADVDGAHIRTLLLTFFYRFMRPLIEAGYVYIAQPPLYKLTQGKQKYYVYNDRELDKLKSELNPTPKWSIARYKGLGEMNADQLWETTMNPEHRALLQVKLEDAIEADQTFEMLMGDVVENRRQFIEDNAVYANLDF
DNA gyrase (Staphylococcus aureus, UniProt P0A0K8+P20831), sequence (P20831 whole entry): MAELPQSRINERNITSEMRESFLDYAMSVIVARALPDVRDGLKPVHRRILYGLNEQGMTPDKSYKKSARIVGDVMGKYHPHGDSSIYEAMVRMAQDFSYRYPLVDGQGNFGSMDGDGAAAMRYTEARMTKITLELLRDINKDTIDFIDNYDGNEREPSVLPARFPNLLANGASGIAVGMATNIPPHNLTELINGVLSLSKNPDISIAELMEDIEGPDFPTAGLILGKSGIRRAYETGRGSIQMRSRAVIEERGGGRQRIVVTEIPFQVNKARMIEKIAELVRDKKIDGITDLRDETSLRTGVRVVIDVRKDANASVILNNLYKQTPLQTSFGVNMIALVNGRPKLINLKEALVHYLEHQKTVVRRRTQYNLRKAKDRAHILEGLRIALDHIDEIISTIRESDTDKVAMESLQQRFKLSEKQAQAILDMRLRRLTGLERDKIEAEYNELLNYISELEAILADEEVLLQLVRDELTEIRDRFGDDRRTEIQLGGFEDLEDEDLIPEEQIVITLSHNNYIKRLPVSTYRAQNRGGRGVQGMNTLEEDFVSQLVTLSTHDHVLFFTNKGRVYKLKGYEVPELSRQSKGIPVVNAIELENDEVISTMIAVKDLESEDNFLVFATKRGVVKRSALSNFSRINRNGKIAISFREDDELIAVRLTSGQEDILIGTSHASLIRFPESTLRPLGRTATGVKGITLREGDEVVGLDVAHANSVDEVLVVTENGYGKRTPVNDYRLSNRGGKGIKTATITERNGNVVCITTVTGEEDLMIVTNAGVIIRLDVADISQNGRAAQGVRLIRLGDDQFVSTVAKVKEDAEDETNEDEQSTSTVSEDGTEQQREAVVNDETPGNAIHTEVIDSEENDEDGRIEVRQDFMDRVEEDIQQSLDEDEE

T1 sequence (P11388 whole entry): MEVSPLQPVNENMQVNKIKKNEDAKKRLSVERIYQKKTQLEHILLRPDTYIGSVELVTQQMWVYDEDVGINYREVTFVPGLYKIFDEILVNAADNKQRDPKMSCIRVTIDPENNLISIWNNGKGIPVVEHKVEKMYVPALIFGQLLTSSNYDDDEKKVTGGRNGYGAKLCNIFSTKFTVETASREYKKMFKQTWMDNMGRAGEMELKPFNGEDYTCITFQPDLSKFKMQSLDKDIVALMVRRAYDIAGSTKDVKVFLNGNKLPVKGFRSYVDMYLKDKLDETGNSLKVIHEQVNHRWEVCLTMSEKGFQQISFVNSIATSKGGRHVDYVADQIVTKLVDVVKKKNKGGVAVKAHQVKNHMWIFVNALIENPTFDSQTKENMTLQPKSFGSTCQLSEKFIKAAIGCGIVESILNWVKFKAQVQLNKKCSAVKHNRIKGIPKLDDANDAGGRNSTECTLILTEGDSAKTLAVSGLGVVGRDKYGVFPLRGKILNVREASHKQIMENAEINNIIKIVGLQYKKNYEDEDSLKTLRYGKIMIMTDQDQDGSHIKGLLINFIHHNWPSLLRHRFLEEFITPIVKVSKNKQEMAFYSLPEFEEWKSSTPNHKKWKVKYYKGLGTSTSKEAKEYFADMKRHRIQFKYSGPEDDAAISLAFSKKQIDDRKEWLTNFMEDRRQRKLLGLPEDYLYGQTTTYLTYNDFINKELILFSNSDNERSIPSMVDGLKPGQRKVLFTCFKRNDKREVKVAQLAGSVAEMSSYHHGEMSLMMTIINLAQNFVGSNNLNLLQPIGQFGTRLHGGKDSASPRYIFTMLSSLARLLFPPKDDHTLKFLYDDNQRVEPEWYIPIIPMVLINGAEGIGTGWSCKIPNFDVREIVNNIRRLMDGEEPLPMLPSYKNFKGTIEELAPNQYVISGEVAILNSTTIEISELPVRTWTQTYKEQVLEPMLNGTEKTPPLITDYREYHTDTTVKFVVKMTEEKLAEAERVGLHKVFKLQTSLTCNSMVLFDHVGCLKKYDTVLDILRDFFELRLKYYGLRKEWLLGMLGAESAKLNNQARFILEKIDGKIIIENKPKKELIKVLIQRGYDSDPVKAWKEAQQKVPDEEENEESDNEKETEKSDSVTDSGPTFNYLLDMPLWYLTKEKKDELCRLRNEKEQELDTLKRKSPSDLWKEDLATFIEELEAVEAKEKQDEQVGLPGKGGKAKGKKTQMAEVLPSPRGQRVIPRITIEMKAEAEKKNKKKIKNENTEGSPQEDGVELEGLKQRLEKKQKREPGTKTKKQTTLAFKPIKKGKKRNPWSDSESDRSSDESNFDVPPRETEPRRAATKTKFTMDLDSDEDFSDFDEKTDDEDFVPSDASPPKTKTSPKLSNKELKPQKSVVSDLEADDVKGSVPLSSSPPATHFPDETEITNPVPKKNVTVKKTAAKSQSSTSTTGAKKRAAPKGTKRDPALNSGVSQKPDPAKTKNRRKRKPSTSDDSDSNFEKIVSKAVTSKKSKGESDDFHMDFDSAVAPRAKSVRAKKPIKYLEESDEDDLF

SMILES	IC50 [1]	Activity [3]	half-life at 1 µM [4]	MIC [9]	MIC [10]	MIC [11]	MIC [12]	MIC [13]	MIC [14]	MIC [15]	MIC [16]	MIC [17]	MIC [18]	viability at 50 µM [19]	IC50 [21]	IC50 [22]	other results
Cc1[nH]c(C(=O)Nc2ccc(C(=O)NS(C)(=O)=O)cc2N2CCOCC2)c(Cl)c1Cl	243 nM	94%	–	–	–	–	–	–	–	–	–	–	–	–	–	–	Activity [2]: 37%
C[C@]12CC[C@H]3[C@@H](CCC4=CC(=O)CC[C@@]43C)[C@@H]1CC[C@@H]2O [TESTOSTERONE]	–	–	22.7 min	–	–	–	–	–	–	–	–	–	–	–	–	–	microsomal CLint at 1 µM [5]: 60.9 µL/min/mg; half-life at 1 µM [6]: 8.2 min; microsomal CLint at 1 µM [7]: 169 µL/min/mg
Cc1[nH]c(C(=O)Nc2ccc(-n3nn[nH]c3=O)cc2N2CCN(c3ccccc3)CC2)c(Cl)c1Cl	7.8 nM	–	–	> 32 µg/mL	> 32 µg/mL	0.5 µg/mL (≈ 0.974 µM)	0.5 µg/mL (≈ 0.974 µM)	0.5 µg/mL (≈ 0.974 µM)	> 32 µg/mL	> 32 µg/mL	> 32 µg/mL	> 32 µg/mL	> 32 µg/mL	58%	–	–	IC50 [8]: 33.6 µM; Activity [2]: 104%
Cc1[nH]c(C(=O)Nc2ccc(-c3noc(=O)[nH]3)cc2N2CCC(NC(=O)OC(C)(C)C)CC2)c(Cl)c1Cl	6.7 nM	30%	76.2 min	> 64 µg/mL	0.5 µg/mL (≈ 0.907 µM)	0.063 µg/mL (≈ 0.114 µM)	< 0.031 µg/mL	0.5 µg/mL (≈ 0.907 µM)	> 64 µg/mL	> 64 µg/mL	> 64 µg/mL	> 64 µg/mL	> 64 µg/mL	44%	–	–	Activity [20]: 62%
Cc1[nH]c(C(=O)Nc2ccc(-c3noc(=O)[nH]3)cc2N2CCNCC2)c(Cl)c1Cl.Cl	6.07 nM	101%	–	> 64 µg/mL	> 64 µg/mL	> 64 µg/mL	> 64 µg/mL	> 64 µg/mL	> 64 µg/mL	> 64 µg/mL	> 64 µg/mL	> 64 µg/mL	> 64 µg/mL	–	3150 nM	–	–
Cc1[nH]c(C(=O)Nc2ccc(-c3noc(=O)[nH]3)cc2N2CCCC2)c(Cl)c1Cl	12.6 nM	99%	78.7 min	> 64 µg/mL	0.5 µg/mL (≈ 1.18 µM)	< 0.031 µg/mL	< 0.031 µg/mL	0.063 µg/mL (≈ 0.149 µM)	> 64 µg/mL	> 64 µg/mL	> 64 µg/mL	> 64 µg/mL	> 64 µg/mL	119%	2410 nM	–	microsomal CLint at 1 µM [5]: 17.6 µL/min/mg; half-life at 1 µM [6]: 126 min; microsomal CLint at 1 µM [7]: 11 µL/min/mg
Cc1[nH]c(C(=O)Nc2ccc(-c3noc(=O)[nH]3)cc2N2CCCC(N)C2)c(Cl)c1Cl.Cl (stereo not given)	2.49 nM	91%	–	> 64 µg/mL	> 64 µg/mL	> 64 µg/mL	8 µg/mL	8 µg/mL	> 64 µg/mL	> 64 µg/mL	> 64 µg/mL	16 µg/mL	> 64 µg/mL	95%	145 nM	55.8 nM	–
Cc1[nH]c(C(=O)Nc2ccc(-c3noc(=O)[nH]3)cc2NC2CCNCC2)c(Cl)c1Cl.Cl	9.66 nM	101%	–	> 64 µg/mL	> 64 µg/mL	> 64 µg/mL	> 64 µg/mL	> 64 µg/mL	> 64 µg/mL	> 64 µg/mL	> 64 µg/mL	> 64 µg/mL	> 64 µg/mL	–	1180 nM	249 nM	–
Cc1[nH]c(C(=O)Nc2ccc(-n3nn[nH]c3=O)cc2N2CCC(N)CC2)c(Cl)c1Cl.Cl	3.96 nM	103%	–	> 32 µg/mL	> 32 µg/mL	> 32 µg/mL	> 32 µg/mL	> 32 µg/mL	> 32 µg/mL	> 32 µg/mL	> 32 µg/mL	> 32 µg/mL	> 32 µg/mL	–	11500 nM	216 nM	–
